The values that follow come from patent US20230219965A1 (KSQ Therapeutics, Inc., priority 2020, published 2023).

Where two headings read alike, the source gives them in different places.

A short description of series [1]: ADME solubility determination in PBS at pH 2.0 and pH 7.4. The class given is physicochemical. To be noted: phosphate buffered saline, 25 °C, thermodynamic from solid. The gist of the method: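 Solubility was read by LC-MS/MS on centrifuged supernatants, calibrated to a known-concentration standard and corrected for dilution. Compound, dried down from 10 mM DMSO stock, was equilibrated 24 h at 25° C with shaking in PBS at pH 2.0 or pH 7.4.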

Series [2] has as its target USP1/UAF1 enzyme (Homo sapiens, UniProt O94782). As to the kind of experiment: USP1/UAF1 deubiquitination assay (ubiquitin-rhodamine 110 substrate). The class given is biochemical. To be noted: read-out: USP1 IC50 (Ub-Rho). In short, it runs like this:
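Cleavage of 150 nM ubiquitin-rhodamine 110 by 0.05 nM USP1/UAF1 was followed as fluorescence (Ex480/Em540, kinetic, 30 min) in Tris-HCl pH 7.8 buffer with EDTA, BSA, DTT and Tween-20. Compounds, top 10 μM, were preincubated with enzyme 10 min; % inhibition against no-enzyme and DMSO wells gave four-parameter IC50s.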

Series [3] can be described thus: Liver microsomal metabolic stability, rat liver microsomes (RLM). The settings on record: rat, liver microsomes, t1/2 (min) in RLM, 1 μM compound, 1 mg/mL microsomes, NADPH.
The subject of series [4] is Ub-PCNA levels in the nucleus of ES2 cells (USP1 activity). Put plainly: ES2 Ub-PCNA immunofluorescence (IF) assay. The class given is cell-based. To be noted: Homo sapiens, read-out: USP1 IC50 (Ub-PCNA). In short, it runs like this:
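AC50 derived from percent Ub-PCNA-positive nuclei, positivity set by a 95% cutoff from untreated-well intensities. Readout by imaging immunofluorescence (anti-Ub-PCNA, DAPI nuclear mask) after methanol fixation. Compound exposure: 3 h at 37° C, 0.3% DMSO final, on cells plated overnight.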

Series [5] is described as follows: Liver microsomal metabolic stability, human liver microsomes (HLM). To be noted: human, liver microsomes. On the technique in general: Liver microsomes are vesicles of endoplasmic reticulum, rich in cytochrome P450 enzymes.
Protocol: Samples were prepared by adding 222.5 μL of a master solution (100 mM phosphate buffer and 1 mg/mL liver microsomes (HLM or RLM)) and 25 μL of a 10 mM NADPH solution to incubation plates, which were then warmed for 10 min. Each compound was separately dissolved in DMSO to prepare 10 mM stock solutions, which were then diluted to 100 μM with acetonitrile. A reaction was started by adding 2.5 μL of the 100 μM solution of each compound to separate incubation plates such that the final concentration of for each compound in each plate was 1 μM.
25 μL aliquots of each sample were taken at 0.5, 5, 10, 15, 20 and 30 minutes, and the reaction was stopped by adding 5 volumes of cold acetonitrile with IS (100 nM alprazolam, 200 nM caffeine and 100 nM tolbutamide). The samples were then centrifuged at 3,220 G for 30 minutes, and 100 μL of the supernatant fluid was mixed with 100 μL of ultra-pure H2O.
The samples were then analyzed by LC-MS/MS. Peak areas were determined from extracted ion chromatograms. Slope values (k) were determined by linear regression of the natural logarithm of the remaining percentage of the compound vs. incubation time curve. The in vitro half-life (in vitro t1/2) was determined from the slope value using the following equation:
The mark [6] stands for this setting: pH 2, aqueous buffer, PBS pH 2.0, 25° C., read-out: Solubility at pH 2.0.
[7] abbreviates: pH 7.4, aqueous buffer, PBS pH 7.4, 25° C., read-out: Solubility at pH 7.4.
Setting [8] is: ES-2, ES2 cells, 3 hours, Ub-PCNA immunofluorescence.

Sequence of USP1/UAF1 enzyme (O94782 whole entry): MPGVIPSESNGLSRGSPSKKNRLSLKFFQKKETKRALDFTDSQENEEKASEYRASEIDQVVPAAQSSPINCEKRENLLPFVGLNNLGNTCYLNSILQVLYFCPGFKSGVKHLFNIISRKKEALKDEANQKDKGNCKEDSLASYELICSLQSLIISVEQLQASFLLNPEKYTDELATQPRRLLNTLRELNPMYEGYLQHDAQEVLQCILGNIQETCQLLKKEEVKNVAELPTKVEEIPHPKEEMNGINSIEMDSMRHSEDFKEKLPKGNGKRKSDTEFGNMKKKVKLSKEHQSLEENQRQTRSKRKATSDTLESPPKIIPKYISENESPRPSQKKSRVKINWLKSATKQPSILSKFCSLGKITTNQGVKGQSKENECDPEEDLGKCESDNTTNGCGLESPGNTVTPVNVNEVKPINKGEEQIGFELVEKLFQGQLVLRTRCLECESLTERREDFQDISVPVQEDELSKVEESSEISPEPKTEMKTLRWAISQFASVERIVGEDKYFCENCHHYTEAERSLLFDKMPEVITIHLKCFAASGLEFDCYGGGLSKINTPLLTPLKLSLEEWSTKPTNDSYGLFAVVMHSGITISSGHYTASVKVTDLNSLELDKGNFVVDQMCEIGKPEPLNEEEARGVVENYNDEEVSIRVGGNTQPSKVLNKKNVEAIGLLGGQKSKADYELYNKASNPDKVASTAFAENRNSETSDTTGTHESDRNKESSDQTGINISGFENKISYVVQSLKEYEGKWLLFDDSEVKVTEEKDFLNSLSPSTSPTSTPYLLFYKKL
Sequence of USP1/UAF1 enzyme (Q8TAF3 whole entry partner): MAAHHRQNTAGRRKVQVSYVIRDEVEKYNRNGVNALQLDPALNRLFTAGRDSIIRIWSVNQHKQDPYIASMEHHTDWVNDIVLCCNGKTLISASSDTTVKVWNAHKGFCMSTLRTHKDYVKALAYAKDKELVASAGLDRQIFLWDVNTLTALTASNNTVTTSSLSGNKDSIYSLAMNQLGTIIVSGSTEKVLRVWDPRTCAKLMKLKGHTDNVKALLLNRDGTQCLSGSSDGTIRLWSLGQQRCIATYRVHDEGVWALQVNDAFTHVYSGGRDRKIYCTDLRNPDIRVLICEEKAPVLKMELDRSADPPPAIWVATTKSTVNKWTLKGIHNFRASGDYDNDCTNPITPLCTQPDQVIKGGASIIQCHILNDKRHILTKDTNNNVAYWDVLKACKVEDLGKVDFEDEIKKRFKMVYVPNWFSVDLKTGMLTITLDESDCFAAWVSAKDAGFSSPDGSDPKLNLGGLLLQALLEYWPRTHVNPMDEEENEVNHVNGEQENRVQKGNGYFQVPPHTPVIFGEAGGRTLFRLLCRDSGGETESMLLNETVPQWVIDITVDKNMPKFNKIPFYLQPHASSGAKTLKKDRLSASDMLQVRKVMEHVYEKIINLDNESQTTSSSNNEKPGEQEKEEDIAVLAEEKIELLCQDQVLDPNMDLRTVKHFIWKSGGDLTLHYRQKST

Take `COc1ccc(C)nc1-c1ccc(CN2C(=O)CCn3nc(-c4c(Cl)cnn4C(C)C)cc32)cc1Cl` [Example 309]: the solubility at 24 h is ≥ 10 µM in series [1] (setting [6]) and < 10 µM in series [1] (setting [7]). In addition, the half-inhibitory concentration (IC50) is < 100 nM in series [2] and 100 to 500 nM in series [4] (setting [8]). The half-life at 1 μM in series [3] and in series [5] was < 25 min throughout.

In the case of `CC(C)n1ncc(Cl)c1-c1cc2n(n1)CCC(=O)N2Cc1ccc(-c2ncccc2N(C)C)cc1` [Example 321], the solubility at 24 h in series [1] (setting [6]) was ≥ 10 µM; in series [1] (setting [7]), < 10 µM. Further, the IC50 in series [2] and in series [4] (setting [8]) was < 100 nM throughout. The half-life at 1 μM in series [3] and in series [5] was < 25 min each time.

On to `CCn1cc(C(F)(F)F)nc1-c1ccc(CN2CC(C)(C)Cn3nc(-c4c(OC)ncnc4C4CC4)cc32)cc1F` [Example 327, 2-(4-cyclopropyl-6-methoxypyrimidin-5-yl)-4-(4-(1-ethyl-4-(trifluoromethyl)-1H-imidazol-2-yl)-3-fluorobenzyl)-6,6-dimethyl-4,5,6,7-tetrahydropyrazolo[1,5-α]pyrimidine], for which the solubility at 24 h in series [1] (setting [6]) was ≥ 10 µM; in series [1] (setting [7]), < 10 µM. In addition, the IC50 in series [2] and in series [4] (setting [8]) was < 100 nM throughout. Further, the half-life at 1 μM in series [3] and in series [5] was < 25 min throughout.

In the case of `CCn1cc(C(F)(F)F)nc1-c1ccc(CNC2CCCn3nc(-c4c(Cl)cnn4C(C)C)cc32)cc1` (stereo not drawn) [Example 330, 2-(4-chloro-1-isopropyl-1H-pyrazol-5-yl)-N-(4-(1-ethyl-4-(trifluoromethyl)-1H-imidazol-2-yl)benzyl)-4,5,6,7-tetrahydropyrazolo[1,5-α]pyridin-4-amine], the solubility at 24 h is ≥ 10 µM in series [1] (setting [6]) and < 10 µM in series [1] (setting [7]). Besides, the IC50 in series [2] is < 100 nM; in series [4] (ES-2, 3 h), < 100 nM. For the same molecule, the half-life at 1 μM in series [3] and in series [5] was < 25 min in each case.

For `CCn1cc(C(F)(F)F)nc1-c1ccc(N(CCO)C2CCCn3nc(-c4c(Cl)cnn4C(C)C)cc32)cc1F` (stereo not drawn) [Example 331, 2-((2-(4-chloro-1-isopropyl-1H-pyrazol-5-yl)-4,5,6,7-tetrahydropyrazolo[1,5-α]pyridin-4-yl)(4-(1-ethyl-4-(trifluoromethyl)-1H-imidazol-2-yl)-3-fluorophenyl)amino)-ethan-1-ol], the solubility at 24 h in series [1] (setting [6]) and in series [1] (setting [7]) was < 10 µM each time. For the same molecule, the IC50 in series [2] and in series [4] (setting [8]) was < 100 nM each time. Moreover, the half-life at 1 μM in series [3] and in series [5] was < 25 min throughout.

On to `CCn1cc(C(F)(F)F)nc1-c1ccc(Cn2c(=O)ccn3nc(-c4c(OC)ncnc4C4CC4)cc23)cc1` [Example 332, 2-(4-cyclopropyl-6-methoxypyrimidin-5-yl)-4-(4-(1-ethyl-4-(trifluoromethyl)-1H-imidazol-2-yl)benzyl)pyrazolo[1,5-α]pyrimidin-5(4H)-one], for which the solubility at 24 h in series [1] (setting [6]) and in series [1] (setting [7]) was ≥ 10 µM throughout. For the same molecule, the IC50 in series [2] and in series [4] (setting [8]) was < 100 nM in each case. The half-life at 1 μM in series [3] and in series [5] was > 25 min in each case.

Consider `CCn1cc(C(F)(F)F)nc1-c1ccc([C@@H](C)n2c(=O)ccn3nc(-c4c(OC)ncnc4C4CC4)cc23)cc1F` [Example 333, (R)-2-(4-cyclopropyl-6-methoxypyrimidin-5-yl)-4-(1-(4-(1-ethyl-4-(trifluoromethyl)-1H-imidazol-2-yl)-3-fluorophenyl)ethyl)pyrazolo[1,5-α]pyrimidin-5(4H)-one], for which the solubility at 24 h in series [1] (setting [6]) and in series [1] (setting [7]) was < 10 µM throughout. For the same molecule, the IC50 in series [2] and in series [4] (setting [8]) was < 100 nM in each case. Moreover, the half-life at 1 μM in series [3] and in series [5] was > 25 min each time.

For `CCn1cc(C(F)(F)F)nc1-c1ccc([C@@H](C)n2c(=O)ccn3nc(-c4c(OC)ncnc4C4CC4)cc23)cc1` [Example 335, (R)-2-(4-cyclopropyl-6-methoxypyrimidin-5-yl)-4-(1-(4-(1-ethyl-4-(trifluoromethyl)-1H-imidazol-2-yl)phenyl)ethyl)pyrazolo[1,5-a]pyrimidin-5(4H)-one], the solubility at 24 h in series [1] (setting [6]) is ≥ 10 µM; in series [1] (setting [7]), < 10 µM. Further, the 50% inhibitory concentration (IC50) in series [2] and in series [4] (setting [8]) was < 100 nM in each case. Moreover, the half-life at 1 μM in series [3] and in series [5] was > 25 min throughout.

Regarding `CCn1cc(C(F)(F)F)nc1-c1ccc([C@H](C)n2c(=O)ccn3nc(-c4c(OC)ncnc4C4CC4)cc23)cc1` [Example 336, (S)-2-(4-cyclopropyl-6-methoxypyrimidin-5-yl)-4-(1-(4-(1-ethyl-4-(trifluoromethyl)-1H-imidazol-2-yl)phenyl)ethyl)pyrazolo[1,5-a]pyrimidin-5(4H)-one], the solubility at 24 h in series [1] (setting [6]) is ≥ 10 µM; in series [1] (setting [7]), < 10 µM. Also, the IC50 in series [2] and in series [4] (setting [8]) was < 100 nM in each case. The half-life at 1 μM was > 25 min in series [3] and < 25 min in series [5].

With `CCn1cc(C(F)(F)F)nc1-c1ccc(Cn2c(=O)ccn3nc(-c4c(OC)ncnc4C4CC4)nc23)cc1` [Example 337, 2-(4-cyclopropyl-6-methoxypyrimidin-5-yl)-4-(4-(1-ethyl-4-(trifluoromethyl)-1H-imidazol-2-yl)benzyl)-[1,2,4]triazolo[1,5-α]pyrimidin-5(4H)-one], the results for the solubility at 24 h in series [1] (setting [6]) and in series [1] (setting [7]) were ≥ 10 µM and < 10 µM, respectively. Besides, the half-maximal inhibitory concentration (IC50) in series [2] and in series [4] (setting [8]) was < 100 nM in each case. The half-life at 1 μM in series [3] and in series [5] was > 25 min each time.

With `CCn1cc(C(F)(F)F)nc1-c1ccc([C@@H](C)n2c(=O)ccn3nc(-c4c(OC)ncnc4C4CC4)nc23)cc1` [Example 338, (R)-2-(4-cyclopropyl-6-methoxypyrimidin-5-yl)-4-(1-(4-(1-ethyl-4-(trifluoromethyl)-1H-imidazol-2-yl)phenyl)ethyl)-[1,2,4]triazolo[1,5-a]pyrimidin-5(4H)-one], the solubility at 24 h in series [1] (setting [6]) was ≥ 10 µM; in series [1] (setting [7]), < 10 µM. In addition, the half-maximal inhibitory concentration (IC50) in series [2] and in series [4] (setting [8]) was < 100 nM each time. Also, the half-life at 1 μM in series [3] was < 25 min; in series [5], > 25 min.

Regarding `CCn1cc(C(F)(F)F)nc1-c1ccc([C@H](C)n2c(=O)ccn3nc(-c4c(OC)ncnc4C4CC4)nc23)cc1` [Example 339, (S)-2-(4-cyclopropyl-6-methoxypyrimidin-5-yl)-4-(1-(4-(1-ethyl-4-(trifluoromethyl)-1H-imidazol-2-yl)phenyl)ethyl)-[1,2,4]triazolo[1,5-a]pyrimidin-5(4H)-one], the solubility at 24 h is ≥ 10 µM in series [1] (setting [6]) and < 10 µM in series [1] (setting [7]). The concentration for half-maximal inhibition (IC50) in series [2] and in series [4] (setting [8]) was < 100 nM each time. The half-life at 1 μM in series [3] is > 25 min; in series [5], < 25 min.

In the case of `CCn1cc(C(F)(F)F)nc1-c1ccc(C(C)n2c(=O)ccn3nc(-c4c(OC)ncnc4C4CC4)nc23)cc1` (stereo not drawn) [Example 340, 2-(4-cyclopropyl-6-methoxypyrimidin-5-yl)-4-(1-(4-(1-ethyl-4-(trifluoromethyl)-1H-imidazol-2-yl)phenyl)ethyl)-[1,2,4]triazolo[1,5-a]pyrimidin-5(4H)-one], the solubility at 24 h in series [1] (setting [6]) and in series [1] (setting [7]) was ≥ 10 µM each time. Moreover, the IC50 in series [2] and in series [4] (setting [8]) was < 100 nM throughout. Also, the half-life at 1 μM in series [3] and in series [5] was > 25 min throughout.

Consider `CCn1cc(C(F)(F)F)nc1-c1ccc(Cn2c(=O)ccn3nc(-c4c(Cl)cnn4C(C)C)nc23)cc1F` [Example 343, 2-(4-chloro-1-isopropyl-1H-pyrazol-5-yl)-4-(4-(1-ethyl-4-(trifluoromethyl)-1H-imidazol-2-yl)-3-fluorobenzyl)-[1,2,4]triazolo[1,5-a]pyrimidin-5(4H)-one], for which the solubility at 24 h in series [1] (setting [6]) and in series [1] (setting [7]) was < 10 µM in each case. Also, the IC50 in series [2] and in series [4] (setting [8]) was < 100 nM in each case. The half-life at 1 μM in series [3] and in series [5] was > 25 min throughout.

For `CCn1cc(C(F)(F)F)nc1-c1ccc(Cn2c(=O)ccn3nc(-c4c(OC(F)F)ncnc4C4CC4)nc23)cc1` [Example 345], the solubility at 24 h in series [1] (setting [6]) and in series [1] (setting [7]) was < 10 µM each time. Further, the IC50 in series [2] and in series [4] (setting [8]) was < 100 nM throughout. The half-life at 1 μM in series [3] and in series [5] was > 25 min in each case.

For orientation: solubility means the concentration that dissolves in the medium under given conditions. In general, IC50 refers to the midpoint of a concentration-inhibition curve. For orientation: half-life means the time needed for the level to fall by half in the phase considered. Read a high half-life as slow loss.
